From patent US11957759B1, “Rapidly accelerated fibrosarcoma (RAF) degrading compounds and associated methods of use” (Arvinas Operations, Inc., priority 2022, dated 2024)

Columns and labels:
[1] = molecular target: T1, B-RAF V600E (Homo sapiens, UniProt P15056, V600E); assay: Target protein degradation, assay C: T-Rex 293 cells, HA-BRAF_V600E, 384 well format; type: cell-based; details: T-Rex 293 HA-BRAF_V600E cells, 24 hours, Examples 83-269; for DC50: Assay C; for Dmax: T-REx-293, Assay C
T1 construct: expressed in transfected cells; host or cells: T-Rex 293 cells (Invitrogen #R71007)
Summary of the method: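 T-Rex 293 cells stably expressing doxycycline-induced (1 ng/mL) HA-BRAF V600E were treated 24 h at 37 °C with compound (300 nM–5 pM, 11 points, 0.5% DMSO). HA immunofluorescence was quantified by high-content imaging to give DC50 and Dmax (% of control); nuclei counts versus DMSO gauged toxicity.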

[2] = molecular target: T2, B-RAF G466V (Homo sapiens, UniProt P15056, G466V); assay: Target protein degradation, assay D: T-Rex 293 cells, HA-BRAF_G466V, 384 well format; type: cell-based; details: T-Rex 293 HA-BRAF_G466V cells, 24 hours, Examples 83-269; for DC50: Assay D; for Dmax: T-REx-293, Assay D
T2 construct: expressed in transfected cells; host or cells: T-Rex 293 cells (Invitrogen #R71007)
Summary of the method: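 T-Rex 293 cells stably expressing doxycycline-induced (1 ng/mL) HA-BRAF G466V treated 24 h at 37 °C with PROTACs, 11-point 1:3 dilution, 300 nM to 5 pM final, 0.5% DMSO. Fixed cells immunostained for HA and imaged by high-content microscopy; DC50 and Dmax (% of control) derived, toxicity from nuclei counts versus DMSO.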

T1 sequence (P15056 whole entry V600E): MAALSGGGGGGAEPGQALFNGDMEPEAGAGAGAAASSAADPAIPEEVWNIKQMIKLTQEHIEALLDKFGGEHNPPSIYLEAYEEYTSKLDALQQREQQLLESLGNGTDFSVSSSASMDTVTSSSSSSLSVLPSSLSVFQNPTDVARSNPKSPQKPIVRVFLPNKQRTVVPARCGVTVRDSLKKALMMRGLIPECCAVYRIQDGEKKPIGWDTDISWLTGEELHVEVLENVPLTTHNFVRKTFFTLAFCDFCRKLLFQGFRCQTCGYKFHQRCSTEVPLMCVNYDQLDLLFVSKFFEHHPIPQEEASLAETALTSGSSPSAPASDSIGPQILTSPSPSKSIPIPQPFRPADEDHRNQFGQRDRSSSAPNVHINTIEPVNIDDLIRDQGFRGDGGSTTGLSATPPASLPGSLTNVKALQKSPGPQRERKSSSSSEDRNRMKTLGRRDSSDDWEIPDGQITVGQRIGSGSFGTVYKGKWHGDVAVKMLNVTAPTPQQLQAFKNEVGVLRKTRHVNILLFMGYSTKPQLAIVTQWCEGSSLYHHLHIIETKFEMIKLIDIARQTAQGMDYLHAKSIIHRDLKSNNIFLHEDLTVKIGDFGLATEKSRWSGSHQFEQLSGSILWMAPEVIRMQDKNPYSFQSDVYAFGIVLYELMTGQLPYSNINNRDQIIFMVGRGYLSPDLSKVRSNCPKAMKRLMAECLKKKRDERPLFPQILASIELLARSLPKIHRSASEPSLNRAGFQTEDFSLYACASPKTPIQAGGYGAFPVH
T2 sequence (P15056 whole entry G466V): as the sequence (P15056 whole entry V600E) above, with G466V, E600V counted along it

| Structure (SMILES) | DC50 [1] [µM] | Dmax [1] [%] | DC50 [2] [µM] | Dmax [2] [%] |
| --- | --- | --- | --- | --- |
| N#Cc1c(NS(=O)(=O)N2CC[C@@H](F)C2)ccc(F)c1Oc1ccc2ncn(-c3ccc(N4CC(C5CN(c6ccc7c(c6)C(=O)N(C6CCC(=O)NC6=O)C7=O)C5)C4)nc3)c(=O)c2c1 (stereo partly drawn) [Example 158, (3R)-N-(2-cyano-3-{[3-(6-{1'-[2-(2,6-dioxopiperidin-3-yl)-1,3-dioxo-2,3-dihydro-1H-isoindol-5-yl]-[3,3'-biazetidin]-1-yl}pyridin-3-yl)-4-oxo-3,4-dihydroquinazolin-6-yl]oxy}-4-fluorophenyl)-3-fluoropyrrolidine-1-sulfonamide] | 0.05 to 0.5 | ≤ 35 | ≤ 0.001 | ≤ 35 |
| N#Cc1c(NS(=O)(=O)N2CC[C@@H](F)C2)ccc(F)c1Oc1ccc2ncn(-c3ccn(C4CC5(C4)CN(CC4CCN(c6ccc7c(c6)CN(C6CCC(=O)NC6=O)C7=O)CC4)C5)n3)c(=O)c2c1 (stereo partly drawn) [Example 97, (3R)-N-{2-cyano-3-[(3-{1-[2-({1-[2-(2,6-dioxopiperidin-3-yl)-1-oxo-2,3-dihydro-1H-isoindol-5-yl]piperidin-4-yl}methyl)-2-azaspiro[3.3]heptan-6-yl]-1H-pyrazol-3-yl}-4-oxo-3,4-dihydroquinazolin-6-yl)oxy]-4-fluorophenyl}-3-fluoropyrrolidine-1-sulfonamide] | 0.05 to 0.5 | 35 to 70 | 0.001 to 0.01 | 35 to 70 |
| N#Cc1c(NS(=O)(=O)N2CC[C@@H](F)C2)ccc(F)c1Oc1ccc2ncn(-c3ccc(N4CCC(CN5CCC6(CC5)CCN(c5ccc7c(c5)CN([C@H]5CCC(=O)NC5=O)C7=O)CC6)CC4)cc3)c(=O)c2c1 [Example 228, (3R)-N-(2-cyano-3-{[3-(4-{4-[(9-{2-[(3S)-2,6-dioxopiperidin-3-yl]-1-oxo-2,3-dihydro-1H-isoindol-5-yl}-3,9-diazaspiro[5.5]undecan-3-yl)methyl]piperidin-1-yl}phenyl)-4-oxo-3,4-dihydroquinazolin-6-yl]oxy}-4-fluorophenyl)-3-fluoropyrrolidine-1-sulfonamide] | 0.05 to 0.5 | 35 to 70 | 0.001 to 0.01 | 35 to 70 |
| N#Cc1c(NS(=O)(=O)N2CC[C@@H](F)C2)ccc(F)c1Oc1ccc2ncn(-c3ccc(N4CC5(CN(CC6CCN(c7ccc8c(c7)C(=O)N(C7CCC(=O)NC7=O)C8=O)CC6)C5)C4)nc3)c(=O)c2c1 (stereo partly drawn) [Example 172, (3R)-N-{2-cyano-3-[(3-{6-[6-({1-[2-(2,6-dioxopiperidin-3-yl)-1,3-dioxo-2,3-dihydro-1H-isoindol-5-yl]piperidin-4-yl}methyl)-2,6-diazaspiro[3.3]heptan-2-yl]pyridin-3-yl}-4-oxo-3,4-dihydroquinazolin-6-yl)oxy]-4-fluorophenyl}-3-fluoropyrrolidine-1-sulfonamide] | 0.05 to 0.5 | ≤ 35 | 0.001 to 0.01 | ≤ 35 |
| N#Cc1c(NS(=O)(=O)N2CC[C@@H](F)C2)ccc(F)c1Oc1ccc2ncn(-c3ccc(N4CCN(CCCOc5cccc6c5C(=O)N(C5CCC(=O)NC5=O)C6=O)CC4)nc3)c(=O)c2c1 (stereo partly drawn) [Example 150, (3R)-N-{2-cyano-3-[(3-{6-[4-(3-{[2-(2,6-dioxopiperidin-3-yl)-1,3-dioxo-2,3-dihydro-1H-isoindol-4-yl]oxy}propyl)piperazin-1-yl]pyridin-3-yl}-4-oxo-3,4-dihydroquinazolin-6-yl)oxy]-4-fluorophenyl}-3-fluoropyrrolidine-1-sulfonamide] | ≤ 0.005 | 35 to 70 | ≤ 0.001 | ≤ 35 |
| N#Cc1c(NS(=O)(=O)N2CC[C@@H](F)C2)ccc(F)c1Oc1ccc2ncn(-c3ccc(N4CCN(CC5(F)CCN(c6ccc7c(c6)CN([C@H]6CCC(=O)NC6=O)C7=O)CC5)CC4)cc3)c(=O)c2c1 [Example 223, (3R)-N-(2-cyano-3-{[3-(4-{4-[(1-{2-[(3S)-2,6-dioxopiperidin-3-yl]-1-oxo-2,3-dihydro-1H-isoindol-5-yl}-4-fluoropiperidin-4-yl)methyl]piperazin-1-yl}phenyl)-4-oxo-3,4-dihydroquinazolin-6-yl]oxy}-4-fluorophenyl)-3-fluoropyrrolidine-1-sulfonamide] | 0.05 to 0.5 | 35 to 70 | 0.001 to 0.01 | 35 to 70 |
| COc1ccc(N2CCC(CN3CCN(c4ccc(-n5cnc6ccc(Oc7c(F)ccc(NS(=O)(=O)N8CC[C@@H](F)C8)c7C#N)cc6c5=O)cn4)CC3)CC2)cc1C(=O)NC1CCC(=O)NC1=O (stereo partly drawn) [Example 141, 5-(4-{[4-(5-{6-[2-cyano-6-fluoro-3-({[(3R)-3-fluoropyrrolidin-1-yl]sulfonyl}amino)phenoxy]-4-oxo-3,4-dihydroquinazolin-3-yl}pyridin-2-yl)piperazin-1-yl]methyl}piperidin-1-yl)-N-(2,6-dioxopiperidin-3-yl)-2-methoxybenzamide] | 0.05 to 0.5 | ≤ 35 | 0.001 to 0.01 | ≤ 35 |
| N#Cc1c(NS(=O)(=O)N2CC[C@@H](F)C2)ccc(F)c1Oc1ccc2ncn(-c3ccc(N4CCC(CN5CC6(CCN(c7ccc8c(c7)CN([C@H]7CCC(=O)NC7=O)C8=O)CC6)C5)C4)cc3)c(=O)c2c1 (stereo partly drawn) [Example 233, (3R)-N-(2-cyano-3-{[3-(4-{3-[(7-{2-[(3S)-2,6-dioxopiperidin-3-yl]-1-oxo-2,3-dihydro-1H-isoindol-5-yl}-2,7-diazaspiro[3.5]nonan-2-yl)methyl]pyrrolidin-1-yl}phenyl)-4-oxo-3,4-dihydroquinazolin-6-yl]oxy}-4-fluorophenyl)-3-fluoropyrrolidine-1-sulfonamide] | 0.05 to 0.5 | 35 to 70 | 0.01 to 0.03 | 35 to 70 |
| Cc1c(NS(=O)(=O)N2CC[C@@H](F)C2)ccc(F)c1Oc1ccc2ncn(-c3ccc(N4CCN(CC5CCN(c6ccc7c(c6)CN(C6CCC(=O)NC6=O)C7=O)CC5)CC4)cc3)c(=O)c2c1 (stereo partly drawn) [Example 210, (3R)-N-{3-[(3-{4-[4-({1-[2-(2,6-dioxopiperidin-3-yl)-1-oxo-2,3-dihydro-1H-isoindol-5-yl]piperidin-4-yl}methyl)piperazin-1-yl]phenyl}-4-oxo-3,4-dihydroquinazolin-6-yl)oxy]-4-fluoro-2-methylphenyl}-3-fluoropyrrolidine-1-sulfonamide] | 0.05 to 0.5 | 35 to 70 | 0.01 to 0.03 | 35 to 70 |
| N#Cc1c(NS(=O)(=O)N2CC[C@@H](F)C2)ccc(F)c1Oc1ccc2ncn(-c3ccc(N4CCC5(CC4)CN(CC4CCN(c6ccc7c(c6)CN([C@@H]6CCC(=O)NC6=O)C7=O)CC4)C5)cc3)c(=O)c2c1 [Example 203, (3R)-N-(2-cyano-3-{[3-(4-{2-[(1-{2-[(3R)-2,6-dioxopiperidin-3-yl]-1-oxo-2,3-dihydro-1H-isoindol-5-yl}piperidin-4-yl)methyl]-2,7-diazaspiro[3.5]nonan-7-yl}phenyl)-4-oxo-3,4-dihydroquinazolin-6-yl]oxy}-4-fluorophenyl)-3-fluoropyrrolidine-1-sulfonamide] | 0.05 to 0.5 | 35 to 70 | 0.001 to 0.01 | 35 to 70 |
